Assay results: patent publication US20130039956A1, “USE OF NITROCARBOXYLIC ACIDS FOR THE TREATMENT, DIAGNOSIS AND PROPHYLAXIS OF AGGRESSIVE HEALING PATTERNS” (priority 2010, published 2013)

Assays:
[1] = tested on: pericardial strips; assay: Cold induced injury in a whole tissue ex-vivo model (pericardium); type: cell-based, Wistar rats; settings: 200 μmol, 10 min, two cooling cycles; compared with native FA; note: key: 0: not superior to native FA (control); +: Superior to native FA; ++: superior to both; +++: outstanding effect
Text: To determine whether nitrated fatty acids can be used to preserve cells and tissues from cold or cryoinjury, an in vitro model utilizing murine epicardium was established. The experimental set-up should reduce the possibility of ischemia or reperfusion injury to a minimum, but at the same time allow differentiation of the contribution of ischemia/reperfusion injury-triggered cell death, which is known to occur almost exclusively via apoptosis, whereas cell death induced by cold injury almost exclusively results in necrosis.
The pericardial sac was carefully resected in 24 anesthetized Wistar rats (180-270 g) of either sex. Care was taken to grasp the pericardium with a forceps only at the cutting edges and reduce traumatization of the central portions of the pericardium to a minimum. After resection, the cutting edge and the former apex area of the pericardium were dissected, as to obtain flat tissue strips which were placed immediately in the culture medium (DMEM) containing 10% FCS and antibiotics (penicillin, streptomycin). Tissue samples were cultured in an oxygen atmosphere at 18° C. for 2 days. […] Then the pericardial strips were cut into 4 pieces of equal size. One piece was further cultivated at 37° C. without undergoing the cooling cycles, thus, serving as the control. In each of three investigations, one piece was bathed in a solution (0.9% saline and 1% SDS) containing 200 μmol nitro-fatty acid or contained 200 μmol of the corresponding native fatty acid, for 10 min at a temperature of 18° C. One piece of pericardium was bathed in a solution without fatty acids under otherwise identical conditions. All samples were cooled by continuously decreasing from ambient temperature at a rate of 3° C./min to a minimum temperature of […]. After 1 hour, the samples were rewarmed at a rate of 3° C./min by continuously increasing the temperature until a temperature of 18° C., was achieved. Thereafter an identical cooling and rewarming cycle was performed. After the second cooling cycle, the tissue pieces were further cultured in the culture medium for 1 day allowing continuous adaptation to an ambient temperature of 37° C. For analytical preparations the pericardial pieces were out and further processed. A direct TUNEL assay (Roche) was use for quantification of apoptosis, an annexin V/propidium iodide exclusion assay (Roche) was used to quantify the number of necrotic cells, and viability was determined by the WST-8 assay. Furthermore, the LDH release was quantified in the supernatants.
To rule out that cell death has been induced by ischemia or reperfusion (reoxygenation), in one series of experiments, a control sample was incubated with an all-caspase inhibitor (Q-VD-OPH, BioVision, USA) reconstituted in DMSO before the sample was exposed to cold.

[2] = tested on: Human epithelial lung cells (A549); assay: Membrane protein mediated cytotoxicity (NaF) in epithelial cells, MTT assay; settings: 10 and 50 μmol, 2 hours preincubation, NaF 1-8 mmol; compared with native FA
Procedure: Human epithelial lung cells (A549) were cultured and transferred to an isotonic medium. Cell suspensions were incubated with saline solution, native fatty acid (10 and 50 μmol), or nitro fatty acid (10 and 50 μmol) for 2 hours. Sodium fluoride (NaF) was added to achieve concentrations between 1 and 8 mmol. Cells were separated and washed after 24 hours of exposure. The MTT assay was used to evaluate apoptosis rates.

[3] = tested on: macrophages; assay: Foreign body model (fusion of macrophages, IL-4); type: cell-based; settings: polymeric coating on stainless steel; compared with native FA; note: key: 0: not superior to native FA (control); +: Superior to native FA; ++: superior to both; +++: outstanding effect
Text: Organisms react to the contact with a not completely biocompatible surface with a stereotypic chain of reactions. This is preceded by aggregation of plasmaproteins which initiate adhesion of monocytes. As a response to incompatibility, structural changes and fusion of those monocytes to form giant cells occur. The formation of giant cells is a key component in the development of a foreign body reaction. […] Predictability of foreign body reaction has been validated in an in-vitro model by monitoring fusion of macrophages in response to IL-4 exposition. Using this model a polymeric coating of a stainless steel support material containing variable amounts of nitro fatty acids or native fatty acids or just coated with the sole polymer were exposed to plasma with various concentrations of vitronectin.

| Compound | Relative effect on cold induced injury [1] | Relative effect on NaF-induced cytotoxicity [2] | Relative efficacy in foreign body model [3] |
| --- | --- | --- | --- |
| 9,10-nitro-cis-oleic acid [compound 10] | + | – | – |
| CCCCCCCC/C=C(/CCCCCCCC(=O)O)[N+](=O)[O-] [compound 1, 9-nitro cis-oleic acid] | ++ | ++ | – |
| CCCCC/C=C\C/C(=C\CCCCCCCC(=O)O)[N+](=O)[O-] [compound 2, 10-nitro-cis-linoleic acid] | ++ | ++ | – |
| CCCCCCCC/C(=C/CCCCCCCC(=O)O)[N+](=O)[O-] [compound 3, 10-nitro-cis-oleic acid] | + | + | – |
| CC/C=C\C/C=C\C/C=C(/CCCCCCCC(=O)O)[N+](=O)[O-] [compound 6, 9-nitro-all-cis-9-12,15-octadecatrienoic acid] | ++ | – | – |
| CCCCCCCCCCC/C=C(/CCCCC(=O)O)[N+](=O)[O-] [compound 21, 6-nitro-cis-6-octadecenoic acid] | + | – | + |
| CCCCCC=CCC=C(CC=CC/C=C\CCCC(=O)O)[N+](=O)[O-] [compound 22, 11-nitro-cis-5,8,11,14-eicosatetraenoic acid] | ++ | ++ | ++ |
